From US20210038587A1, “METHODS AND COMPOSITIONS FOR TREATING NON-ERK MAPK PATHWAY INHIBITOR-RESISTANT CANCERS” (BIOMED VALLEY DISCOVERIES, INC., priority 2013, published 2021)

Experiments:
HCT116 = assay: Reverse Phase Protein Analysis (RPPA); assay type: cell-based, human; conditions: % change from DMSO (matched cell line)
Method in brief: (§1)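 Cells were treated 6 h before lysis, with 0.1% (v/v) DMSO as control. Lysates were analysed by reverse-phase protein microarray. Protein changes are expressed as percentage change from DMSO-treated parental cells.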

A375 = assay: Reverse Phase Protein Analysis (RPPA); assay type: cell-based, human; conditions: % change from DMSO (matched cell line)
Method in brief: as §1

[1] = tested on: A375, MIAPaCa-2, HCT116, Colo205, HT-29, and AN3Ca cells; assay: Reverse Phase Protein Analysis (RPPA), all six cell lines; assay type: cell-based; conditions: 10 μM, 6 hours
Procedure: Control wells were treated with DMSO at 0.1% (v/v) for 6 hours prior to cell lysate generation. Samples were then analyzed using reverse-phase protein microarray technology (Theranostics Health).
Cell lines with common alterations in BRAF and RAS were assayed: BRAF^V600E mutant lines A375, Colo205, and HT29; KRAS^G12C-mutant cell line MIAPACa-2; KRAS^G13D-mutant cell line HCT116; and AN3Ca with atypical HRAS^F82L mutation. Changes in protein levels are shown as a percentage change from dimethyl sulfoxide (DMSO)-treated parental control (FIG. 32A and Table 23).

AN3Ca = assay: Reverse Phase Protein Analysis (RPPA); assay type: cell-based; conditions: % change from DMSO (matched cell line)
Method in brief: as §1

HT29 = assay: Reverse Phase Protein Analysis (RPPA); assay type: cell-based; conditions: % change from DMSO (matched cell line)
Method in brief: as §1

O=C(Nc1ccc2[nH]nc(-c3ccncc3)c2c1)[C@@H]1CCN(CC(=O)N2CCN(c3ccc(-c4ncccn4)cc3)CC2)C1 [SCH772984]
Avg (4ebp1 T70) (HCT116): 5.6%
Avg (Akt S473) (HCT116): −8.76%
Avg (Akt) (HCT116): −9.86%
Avg (Bad S136) (HCT116): −10.55%
Avg (Bad S155) (HCT116): −22.96%
Avg (Bak) (HCT116): −4.66%
Avg (Bax) (HCT116): −13.86%
Avg (Bcl 2) (HCT116): −10.58%
Avg (Bcl2 S70) (HCT116): −18.34%
Avg (Bcl 2 T56) (HCT116): −15.89%
Avg (Bim) (HCT116): 1.95%
Avg (CREB S133) (HCT116): −24.18%
Avg (Caspase 3 CL D175) (HCT116): −4.63%
Avg (Caspase 7 Cl D198) (HCT116): −16.35%
Avg (Chk1) (HCT116): −5.58%
Avg (Chk1 S345) (HCT116): −18.51%
Avg (Cyclin D1) (HCT116): −73.21%
Avg (ERK 1 2) (HCT116): −10.22%
Avg (ERK 1 2 T202 Y204) (HCT116): −75.21%
Avg (MAK1 S360) (HCT116): −15.32%
Avg (Mcl1) (HCT116): −6.55%
Avg (Raptor S792) (HCT116): −18.18%
Avg (Raptor) (HCT116): −9.66%
Avg (Rictor) (HCT116): −18.5%
Avg (Stat1) (HCT116): −10.74%
Avg (Stat3) (HCT116): −7.67%
Avg (bad S112) (HCT116): −31.29%
Avg (c Fos) (HCT116): −15.27%
Avg (c Myc) (HCT116): −12.86%
Avg (mTOR S2448) (HCT116): −16.05%
Avg (mTOR S2481) (HCT116): −22.53%
Avg (mTOR) (HCT116): −12.56%
Avg (p70 S6 Kinase) (HCT116): −14.12%
Avg (p90 RSK S380) (HCT116): −33.7%
Avg(S6 Ribo Prot S235 236) (HCT116): −93.86%
Avg(S6 Ribo Prot S240 244) (HCT116): −91.07%
Avg(Tuberin TSC2 Y1571) (HCT116): −16.17%
Avg(p70 S6 Kinase S371 S394) (HCT116): −12.3%
Avg(p70 S6 Kinase T389 T412) (HCT116): −24.63%
Avg (4ebp1 T70) (A375): −31.75%
Avg (Akt S473) (A375): 58.13%
Avg (Akt) (A375): −23.26%
Avg (Bad S136) (A375): 5.32%
Avg (Bad S155) (A375): −13.86%
Avg (Bak) (A375): −2.37%
Avg (Bax) (A375): −17.32%
Avg (Bcl 2) (A375): −18.53%
Avg (Bcl2 S70) (A375): −12.91%
Avg (Bcl 2 T56) (A375): −19.55%
Avg (Bim) (A375): 17.52%
Avg (CREB S133) (A375): −1.55%
Avg (Caspase 3 CL D175) (A375): −9.87%
Avg (Caspase 7 Cl D198) (A375): −6%
Avg (Chk1) (A375): 2.83%
Avg (Chk1 S345) (A375): −10.59%
Avg (Cyclin D1) (A375): −84.05%
Avg (ERK 1 2) (A375): −21.65%
Avg (ERK 1 2 T202 Y204) (A375): −90.63%
Avg (MAK1 S360) (A375): 0.97%
Avg (Mcl1) (A375): 2.11%
Avg (Raptor S792) (A375): −6.89%
Avg (Raptor) (A375): −11.66%
Avg (Rictor) (A375): −22.13%
Avg (Stat1) (A375): −6.01%
Avg (Stat3) (A375): −1.42%
Avg (bad S112) (A375): −71.44%
Avg (c Fos) (A375): −12.51%
Avg (c Myc) (A375): 1.86%
Avg (mTOR S2448) (A375): −26.17%
Avg (mTOR S2481) (A375): −15.82%
Avg (mTOR) (A375): −5.18%
Avg (p70 S6 Kinase) (A375): −17.66%
Avg (p90 RSK S380) (A375): −72.44%
Avg(S6 Ribo Prot S235 236) (A375): −94.71%
Avg(S6 Ribo Prot S240 244) (A375): −91.78%
Avg(Tuberin TSC2 Y1571) (A375): −13.7%
Avg(p70 S6 Kinase S371 S394) (A375): −28.72%
Avg(p70 S6 Kinase T389 T412) (A375): −42.73%
pERK1/2 (ERK1/2-T202, -Y204) [1]: inhibited pERK1/2 in all cell lines
Avg (4ebp1 T70) (AN3Ca): 61.57%
Avg (Akt S473) (AN3Ca): 66.17%
Avg (Akt) (AN3Ca): −16.35%
Avg (Bad S136) (AN3Ca): 5.26%
Avg (Bad S155) (AN3Ca): 12.92%
Avg (Bak) (AN3Ca): 9.73%
Avg (Bax) (AN3Ca): 0.15%
Avg (Bcl 2) (AN3Ca): −5.14%
Avg (Bcl2 S70) (AN3Ca): −12.42%
Avg (Bcl 2 T56) (AN3Ca): −10.73%
Avg (Bim) (AN3Ca): −14.09%
Avg (CREB S133) (AN3Ca): 3.64%
Avg (Caspase 3 CL D175) (AN3Ca): 1.25%
Avg (Caspase 7 Cl D198) (AN3Ca): −24.17%
Avg (Chk1) (AN3Ca): 1.35%
Avg (Chk1 S345) (AN3Ca): 14.56%
Avg (Cyclin D1) (AN3Ca): −11.33%
Avg (ERK 1 2) (AN3Ca): −9.27%
Avg (ERK 1 2 T202 Y204) (AN3Ca): 19.75%
Avg (MAK1 S360) (AN3Ca): −5.02%
Avg (Mcl1) (AN3Ca): −7.15%
Avg (Raptor S792) (AN3Ca): −4.03%
Avg (Raptor) (AN3Ca): −11.09%
Avg (Rictor) (AN3Ca): −10.89%
Avg (Stat1) (AN3Ca): 5.52%
Avg (Stat3) (AN3Ca): −6.01%
Avg (bad S112) (AN3Ca): −39.14%
Avg (c Fos) (AN3Ca): −9.18%
Avg (c Myc) (AN3Ca): 0.88%
Avg (mTOR S2448) (AN3Ca): −4.84%
Avg (mTOR S2481) (AN3Ca): 11.24%
Avg (mTOR) (AN3Ca): −5.33%
Avg (p70 S6 Kinase) (AN3Ca): −7.71%
Avg (p90 RSK S380) (AN3Ca): −40.26%
Avg(S6 Ribo Prot S235 236) (AN3Ca): −61.99%
Avg(S6 Ribo Prot S240 244) (AN3Ca): −35.88%
Avg(Tuberin TSC2 Y1571) (AN3Ca): 13.44%
Avg(p70 S6 Kinase S371 S394) (AN3Ca): 24.56%
Avg(p70 S6 Kinase T389 T412) (AN3Ca): −16.63%
Avg (4ebp1 T70) (HT29): −40.58%
Avg (Akt S473) (HT29): −22.14%
Avg (Akt) (HT29): −16.93%
Avg (Bad S136) (HT29): 9.67%
Avg (Bad S155) (HT29): −7.98%
Avg (Bak) (HT29): 2.78%
Avg (Bax) (HT29): −20.59%
Avg (Bcl 2) (HT29): −10.01%
Avg (Bcl2 S70) (HT29): −11.45%
Avg (Bcl 2 T56) (HT29): −17.9%
Avg (Bim) (HT29): 0.69%
Avg (CREB S133) (HT29): 9.87%
Avg (Caspase 3 CL D175) (HT29): −7.9%
Avg (Caspase 7 Cl D198) (HT29): 7.02%
Avg (Chk1) (HT29): 14.64%
Avg (Chk1 S345) (HT29): 19.05%
Avg (Cyclin D1) (HT29): −36.66%
Avg (ERK 1 2) (HT29): −37%
Avg (ERK 1 2 T202 Y204) (HT29): −74.84%
Avg (MAK1 S360) (HT29): 1.25%
Avg (Mcl1) (HT29): 14.05%
Avg (Raptor S792) (HT29): −6.38%
Avg (Raptor) (HT29): −12.18%
Avg (Rictor) (HT29): −13.03%
Avg (Stat1) (HT29): 5.79%
Avg (Stat3) (HT29): −2.15%
Avg (bad S112) (HT29): −33.9%
Avg (c Fos) (HT29): −9.26%
Avg (c Myc) (HT29): 13.55%
Avg (mTOR S2448) (HT29): −22.65%
Avg (mTOR S2481) (HT29): 13.93%
Avg (mTOR) (HT29): 9.31%
Avg (p70 S6 Kinase) (HT29): −2.36%
Avg (p90 RSK S380) (HT29): −53.88%
Avg(S6 Ribo Prot S235 236) (HT29): −44.9%
Avg(S6 Ribo Prot S240 244) (HT29): −25.73%
Avg(Tuberin TSC2 Y1571) (HT29): 13.25%
Avg(p70 S6 Kinase S371 S394) (HT29): −20.52%
Avg(p70 S6 Kinase T389 T412) (HT29): −9.55%
